Measured values taken from patent US20030118646A1, “(R, S'),(R, R')-amphetaminil, compositions and uses thereof” (priority 2001, published 2003).

Legend:
[1] = tested on: locomotor activity in normal rats; test: Locomotor activity in normal rats (grid line crossings); type: in vivo, Male Wistar rats; conditions: for Locomotor (Peak) / Locomotor (Total): normal rats, dose not given; for Locomotor (Peak) / Locomotor (Total) / Effect on locomotor activity: s.c.; for Locomotor (Peak): at time of peak effect; for Locomotor (Total): total (cumulative) effect; for Ratio (Peak): ratio locomotor/stereotypy at time of peak effect; for Ratio (Total): ratio locomotor/stereotypy, total effect; for Effect on locomotor activity: whole dose range tested (amphetamine 0.1-5, fusaric acid 20-80, amphetaminils 0.1-10 mg/kg), 300 min
Procedure: (§1) Male Wistar rats (n=4 per group) were randomly allocated to each drug treatment group. Drugs were administered such that, with the exception of fusaric acid, each rat in each group received all doses of the drug or vehicle in a semi random manner according to the modified Latin Square in Table 1. Compounds were administered at the doses: 0.1, 1 and 10 mg/kg s.c. in 100% DMSO (vehicle). Amphetamine was administered at 0.1, 1 and 5 mg/kg s.c. in saline (vehicle). Fusaric acid was administered at 20, 40 and 80 mg/kg s.c. in saline (vehicle). Rats received each dose of fusaric acid (20, 40 and 80 mg/kg), doses given in order, starting with vehicle. A one-week interval was provided between doses.
(§2) At the start of the experiment, rats were placed in standard perspex behaviour boxes with a visible grid on the floor to allow determination of locomotor activity. The animals were allowed to acclimatise to their environment for 1 hour prior to drug/saline administration. Following drug administration animals were returned to the behaviour cages and locomotor activity was assessed for a further 5 hours or until baseline (zero activity for 30 minutes) was achieved, whichever was sooner. Locomotor activity was assessed by videoing the rats throughout the experiment, and counting the number of times a rat crossed a grid line over a period of 5 minutes every 10 minutes. Throughout the experiment animals were scored for stereotyped behaviours for 15 seconds every 10 minutes by a trained observer using the scoring methods described in Table 2.
Locomotor activity Data The mean and standard error for locomotor activity during 10 minutes for each rat at each time point was determined. […] Cumulative activity during the 300 min was also calculated, and the effect of dose of drug was analyzed by 1 way repeated measures ANOVA followed by Dunnett's test (GraphPad Prizm). Data was also analysed for significant fit to a sigmoidal-shaped log dose-response curve using non-linear regression analysis (GraphPad Prizm).

[2] = tested on: stereotyped behaviour in normal rats; test: Induction of stereotyped behaviour in normal rats (stereotypy score 0-7); type: in vivo, Male Wistar rats; conditions: for Stereotypy (Peak) / Stereotypy (Total): normal rats, dose not given; for Stereotypy (Peak) / Stereotypy (Total) / Effect on stereotypy: s.c.; for Stereotypy (Peak): stereotypy score at time of peak effect; for Stereotypy (Total): total stereotypy score; for Effect on stereotypy: whole dose range tested (amphetamine 0.1-5, fusaric acid 20-80, amphetaminils 0.1-10 mg/kg), 300 min
Procedure: as §1, §2
The mean and standard error for stereotypy activity for 15 seconds every 10 minutes for each rat at each time point was determined. […] Cumulative activity during the 300 min was also calculated, and the effect of dose of drug was analyzed by Kruskall Wallis one-way ANOVA (GraphPad Prizm). Data was also analysed for significant fit to a sigmoidal-shaped log dose-response curve using non-linear regression analysis (GraphPad Prizm)

Row | SMILES | Locomotor (Peak) [1] | Locomotor (Total) [1] | Ratio (Peak) [1] | Ratio (Total) [1] | Effect on locomotor activity [1] | Duration of stereotypy ([2]; 10 mg/kg s.c.) | Differences in overall stereotypy between dose groups ([2]; 0.1-10 mg/kg s.c., Kruskall Wallis) | Stereotypy (Peak) [2] | Stereotypy (Total) [2] | Effect on stereotypy [2] | Locomotor/stereotypy ratio compared with racemic amphetaminil ([1]; at both the time of peak effect and total effect) | Stereotypy compared with racemic amphetaminil ([2]; FIGS. 7 and 8) | Time of maximum effect on locomotor activity after administration ([1]; 5 mg/kg s.c.) [min] | Cumulative locomotor activity during the 300 min ([1]; 5 mg/kg s.c., compared to vehicle) | Overall stereotypy during the 300 min ([2]; 5 mg/kg s.c.)
1 | CC(Cc1ccccc1)NC(C#N)c1ccccc1 (racemic) [Racemic amphetaminil, alpha-[(1-methyl-2-phenylethyl)amino]benzeneacetonitrile] | 37 | 560 | 7.4 | 4.9 | increased locomotor activity only at the highest dose of 10 mg/kg | sustained for the duration of the experiment | did not reach statistical significance | 5.0 | 115 | increased stereotypy in a log dose-related manner | – | – | – | – | –
2 | C[C@H](Cc1ccccc1)NC(C#N)c1ccccc1 (stereo partly drawn) [(R,R′), (R,S′)-amphetaminil, alpha-[(1R-methyl-2-phenylethyl)amino]-benzeneacetonitrile] | 62 | 625 | 18.8 | 11 | increased locomotor activity only at the highest dose of 10 mg/kg | – | – | 3.3 | 57 | tended to increase stereotypy at 10 mg/kg | higher ratio | less stereotypy than the racemic form of amphetaminil | – | – | –
3 | CC(N)Cc1ccccc1 (stereo not shown) [Amphetamine] | 125 | 850 | 25 | 10.5 | dose-related increase in locomotor activity | – | – | 5 | 81 | log dose-related increase stereotypy | – | – | 30 | significantly increased | tended to increase overall stereotypy
